Tests used:
[1] = molecular target: Serine protease 1 (Homo sapiens, UniProt P07477); assay: Inhibitory activity against trypsin
[2] = molecular target: Prothrombin (Homo sapiens, UniProt P00734); assay: Inhibitory activity against thrombin
[3] = molecular target: Vitamin K-dependent protein C (Homo sapiens, UniProt P04070); assay: Inhibitory activity against activated protein C
[4] = molecular target: Plasminogen (Homo sapiens, UniProt P00747); assay: Inhibitory activity against plasmin
[5] = molecular target: Kallikrein-1 (Homo sapiens, UniProt P06870); assay: Inhibitory activity against kallikrein
Sequence of Kallikrein-1 (P06870 whole entry): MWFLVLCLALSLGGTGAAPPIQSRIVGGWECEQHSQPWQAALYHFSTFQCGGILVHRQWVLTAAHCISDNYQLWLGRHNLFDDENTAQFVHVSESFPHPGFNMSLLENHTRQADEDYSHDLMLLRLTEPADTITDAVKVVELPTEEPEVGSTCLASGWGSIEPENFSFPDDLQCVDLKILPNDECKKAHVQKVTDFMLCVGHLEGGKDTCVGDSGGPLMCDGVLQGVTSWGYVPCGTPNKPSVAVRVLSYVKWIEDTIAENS

[6] = molecular target: T1, Coagulation factor X (Homo sapiens, UniProt P00742); assay: Inhibitory activity against coagulation factor Xa
T1 sequence (P00742 41-179 limits assumed): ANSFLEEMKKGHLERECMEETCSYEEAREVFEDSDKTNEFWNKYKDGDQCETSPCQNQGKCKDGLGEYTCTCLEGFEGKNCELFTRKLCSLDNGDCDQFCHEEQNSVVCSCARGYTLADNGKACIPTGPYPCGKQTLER
T1 sequence (P00742 235-488 limits assumed): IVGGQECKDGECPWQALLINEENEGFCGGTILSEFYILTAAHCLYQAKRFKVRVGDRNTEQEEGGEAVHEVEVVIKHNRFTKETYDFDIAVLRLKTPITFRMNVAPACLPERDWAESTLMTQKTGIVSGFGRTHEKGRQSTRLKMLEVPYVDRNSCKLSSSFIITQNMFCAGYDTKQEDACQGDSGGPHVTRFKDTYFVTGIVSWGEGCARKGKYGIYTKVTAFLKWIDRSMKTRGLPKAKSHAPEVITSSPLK

[7] = Clearance after iv administration to Sprague-Dawley rat at dosage of 0.2 mg/kg; type: ADME, organism-based; parameters: dose 0.2 mg/kg, route intravenous; conditions: in vivo
[8] = Tested for half life value after intravenous administration at dose of 0.2 mg/kg in rat; type: ADME, organism-based; parameters: dose 0.2 mg/kg, route intravenous; conditions: in vivo
[9] = molecular target: T1, Coagulation factor X; assay: Tested for inhibitory activity against Coagulation factor Xa (trypsin-like serine protease) of the compound
[10] = Tested for half life value after oral administration at dosage of 4 mg/kg in rat; type: ADME, organism-based; parameters: dose 4 mg/kg, route oral; conditions: in vivo
[11] = Tested for volume of distribution after intravenous administration to Sprague-Dawley rat at dosage of 0.2 mg/kg; type: ADME, organism-based; parameters: dose 0.2 mg/kg, route intravenous; conditions: in vivo, read-out: Volume of distribution
[12] = Tested for percent bioavailability after oral administration to Sprague-Dawley rat at dosage of 4 mg/kg; conditions: in vivo, read-out: Bioavailabiility
[13] = Half-life was determined; type: ADME, organism-based; conditions: rat, in vivo
[14] = Oral bioavailability in rat by oral dosing; type: ADME, organism-based; conditions: in vivo

Sequence of Plasminogen (P00747 97-580 limits assumed): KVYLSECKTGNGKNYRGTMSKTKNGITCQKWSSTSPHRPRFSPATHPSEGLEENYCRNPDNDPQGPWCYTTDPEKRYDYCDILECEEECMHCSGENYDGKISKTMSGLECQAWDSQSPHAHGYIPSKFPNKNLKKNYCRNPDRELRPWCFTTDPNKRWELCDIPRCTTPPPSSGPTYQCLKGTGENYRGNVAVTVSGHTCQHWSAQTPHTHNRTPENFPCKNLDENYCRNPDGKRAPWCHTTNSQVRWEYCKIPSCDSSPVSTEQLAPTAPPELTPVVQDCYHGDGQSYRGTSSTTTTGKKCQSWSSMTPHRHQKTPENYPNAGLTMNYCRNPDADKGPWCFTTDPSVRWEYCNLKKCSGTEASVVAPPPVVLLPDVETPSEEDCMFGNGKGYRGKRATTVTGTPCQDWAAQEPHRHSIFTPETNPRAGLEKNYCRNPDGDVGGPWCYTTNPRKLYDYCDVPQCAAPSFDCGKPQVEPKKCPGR
Sequence of Plasminogen (P00747 581-810 limits assumed): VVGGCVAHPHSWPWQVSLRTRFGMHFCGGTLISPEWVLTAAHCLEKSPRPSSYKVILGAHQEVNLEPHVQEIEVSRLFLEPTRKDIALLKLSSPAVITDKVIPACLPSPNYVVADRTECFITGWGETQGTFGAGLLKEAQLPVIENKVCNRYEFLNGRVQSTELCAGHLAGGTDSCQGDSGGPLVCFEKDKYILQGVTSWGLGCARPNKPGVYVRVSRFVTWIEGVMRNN
Sequence of Serine protease 1 (P07477 whole entry): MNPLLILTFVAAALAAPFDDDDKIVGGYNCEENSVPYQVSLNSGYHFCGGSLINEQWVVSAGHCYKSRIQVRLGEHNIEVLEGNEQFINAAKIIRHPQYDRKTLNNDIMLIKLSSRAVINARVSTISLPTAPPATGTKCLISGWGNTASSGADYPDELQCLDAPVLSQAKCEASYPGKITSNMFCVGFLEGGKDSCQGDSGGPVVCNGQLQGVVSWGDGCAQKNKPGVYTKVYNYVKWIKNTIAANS
Sequence of Vitamin K-dependent protein C (P04070 43-197 limits assumed): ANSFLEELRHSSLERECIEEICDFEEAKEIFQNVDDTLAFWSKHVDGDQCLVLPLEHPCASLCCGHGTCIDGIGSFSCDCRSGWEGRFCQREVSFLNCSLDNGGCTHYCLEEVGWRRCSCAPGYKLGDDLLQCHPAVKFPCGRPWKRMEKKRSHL
Sequence of Vitamin K-dependent protein C (P04070 212-461 limits assumed): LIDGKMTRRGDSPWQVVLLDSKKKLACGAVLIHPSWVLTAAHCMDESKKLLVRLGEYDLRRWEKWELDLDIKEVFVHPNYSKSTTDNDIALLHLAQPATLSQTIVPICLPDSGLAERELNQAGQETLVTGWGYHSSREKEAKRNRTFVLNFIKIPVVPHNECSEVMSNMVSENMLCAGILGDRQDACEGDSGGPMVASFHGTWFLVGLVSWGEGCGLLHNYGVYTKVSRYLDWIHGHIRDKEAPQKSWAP

| IC50 [1] [µM] | IC50 [2] [µM] | IC50 [3] [µM] | IC50 [4] [µM] | IC50 [5] [µM] | IC50 [6] [µM] | clearance [7] [mL/min/kg] | half-life [8] [h] | Ki [9] [µM] | half-life [10] [h] | Vd [11] [L/kg] | bioavailability [12] [%] | half-life [13] [h] | bioavailability [14] [%] | Structure (SMILES) |
| --- | --- | --- | --- | --- | --- | --- | --- | --- | --- | --- | --- | --- | --- | --- |
| > 11 | > 11 | > 11 | > 11 | > 11 | 0.038 | – | – | – | – | – | – | – | – | Cc1cc(C(=O)Nc2ccc(-c3ccccc3S(N)(=O)=O)cc2)n(-c2cc3ccccc3cc2CN)n1 |
| > 11 | > 11 | > 11 | > 11 | > 11 | 0.143 | – | – | – | – | – | – | – | – | Cc1cc(C(=O)Nc2ccc(-c3ccccc3S(N)(=O)=O)cc2)n(-c2cc3ccccc3cc2Br)n1 |
| > 11 | > 11 | > 11 | > 11 | > 11 | 0.376 | – | – | – | – | – | – | – | – | Cc1cc(C(=O)Nc2ccc(-c3ccccc3S(N)(=O)=O)cc2)n(-c2cc3ccccc3cc2C(=O)O)n1 |
| > 11 | > 11 | > 11 | > 11 | > 11 | 1.65 | – | – | – | – | – | – | – | – | Cc1cc(C(=O)Nc2ccc(-c3ccccc3S(N)(=O)=O)cc2)n(-c2cc3ccccc3cc2C(=N)N(C)C)n1 |
| > 11 | > 11 | > 11 | > 11 | > 11 | 0.021 | – | – | – | – | – | – | – | – | Cc1cc(C(=O)Nc2ccc(-c3ccccc3S(N)(=O)=O)cc2)n(-c2cc3ccccc3cc2C(=N)N)n1 |
| – | – | – | – | – | 0.027 | – | – | – | – | – | – | – | – | NS(=O)(=O)c1ccccc1-c1ccc(NC(=O)c2cc(C(F)(F)F)nn2-c2cc3ccccc3cc2F)cc1 |
| > 11 | > 11 | > 11 | > 11 | > 11 | > 11 | – | – | – | – | – | – | – | – | Cc1cc(C(=O)Nc2ccc(-c3ccccc3S(N)(=O)=O)cc2)n(-c2cc3ccccc3cc2O)n1 |
| > 11 | > 11 | > 11 | > 11 | > 11 | 0.011 | – | – | – | – | – | – | – | – | Cc1cc(C(=O)Nc2ccc(-c3ccccc3S(N)(=O)=O)cc2)n(-c2ccc3cc(Cl)ccc3c2)n1 |
| > 11 | > 11 | > 11 | > 11 | > 11 | 3.51 | – | – | – | – | – | – | – | – | Cc1cc(C(=O)Nc2ccc(-c3ccccc3S(N)(=O)=O)cc2)n(-c2ccc3cc(O)ccc3c2)n1 |
| > 11 | > 11 | > 11 | > 11 | > 11 | 0.045 | – | – | – | – | – | – | – | – | Cc1cc(C(=O)Nc2ccc(-c3ccccc3S(N)(=O)=O)cc2)n(-c2cc3ccccc3cc2S(C)(=O)=O)n1 |
| > 11 | > 11 | > 11 | > 11 | > 11 | – | – | – | – | – | – | – | – | – | COc1ccc2cc(-n3nc(C)cc3C(=O)Nc3ccc(-c4ccccc4S(N)(=O)=O)cc3)ccc2c1 |
| > 11 | > 11 | > 11 | > 11 | > 11 | 0.024 | – | – | – | – | – | – | – | – | Cc1cc(C(=O)Nc2ccc(-c3ccccc3S(N)(=O)=O)cc2)n(-c2cc3ccccc3cc2S(N)(=O)=O)n1 |
| > 11 | > 11 | > 11 | > 11 | > 11 | 0.009 | 17.7 | 1.7 | 0.0057 | 6 | 2.6 | 22 | – | – | Cc1cc(C(=O)Nc2ccc(-c3ccccc3S(N)(=O)=O)cc2)n(-c2cc3ccccc3cc2F)n1 |
| – | – | – | – | – | 0.004 | – | – | – | – | – | – | – | – | NS(=O)(=O)c1ccccc1-c1ccc(NC(=O)c2cc(C(F)(F)F)nn2-c2ccc3cc(Cl)ccc3c2)cc1 |
| > 11 | > 11 | > 11 | > 11 | > 11 | 0.104 | – | – | – | – | – | – | 2.4 | 24.5 | Cc1cc(C(=O)Nc2ccc(-c3ccccc3S(N)(=O)=O)cc2)n(-c2ccc3ccccc3c2)n1 |
| > 11 | > 11 | > 11 | > 11 | > 11 | 0.018 | – | – | – | – | – | – | – | – | Cc1cc(C(=O)Nc2ccc(-c3ccccc3S(N)(=O)=O)cc2)n(-c2ccc3cc(Br)ccc3c2)n1 |
| > 11 | > 11 | > 11 | > 11 | > 11 | 7.82 | – | – | – | – | – | – | – | – | Cc1cc(C(=O)Nc2ccc(-c3ccccc3S(N)(=O)=O)cc2)n(-c2cc3ccccc3cc2C2=NCCN2)n1 |
| > 11 | > 11 | > 11 | > 11 | > 11 | 0.006 | – | – | – | – | – | – | – | – | Cc1cc(C(=O)Nc2ccc(-c3ccccc3S(N)(=O)=O)cc2)n(-c2cc3ccccc3cc2C#N)n1 |
| > 11 | > 11 | > 11 | > 11 | > 11 | 0.483 | – | – | – | – | – | – | – | – | Cc1cc(C(=O)Nc2ccc(-c3ccccc3S(N)(=O)=O)cc2)n(-c2cc3ccccc3cc2CO)n1 |
| > 11 | > 11 | > 11 | > 11 | > 11 | 0.545 | – | – | – | – | – | – | – | – | COC(=O)c1cc2ccccc2cc1-n1nc(C)cc1C(=O)Nc1ccc(-c2ccccc2S(N)(=O)=O)cc1 |
| – | – | – | – | – | > 11 | – | – | – | – | – | – | – | – | Cc1cc(C(=O)Nc2ccc(-c3ccccc3S(N)(=O)=O)cc2)n(-c2nc3ccc(Cl)cc3s2)n1 |
| > 11 | > 11 | > 11 | > 11 | > 11 | 0.024 | – | – | – | – | – | – | – | – | Cc1cc(C(=O)Nc2ccc(-c3ccccc3S(N)(=O)=O)cc2)n(-c2cc3ccccc3cc2C(N)=O)n1 |

Source: ChEMBL document CHEMBL1135946, “Design, synthesis and biological activity of novel non-amidine factor Xa inhibitors. Part 1: P(1) structure-activity relationships of the substituted 1-(2-Naphthyl)-1H-pyrazole-5-carboxylamides” (Bioorg Med Chem Lett, 2002)
